{
  "source": "patent US20140194529A1",
  "about": "“USAGE OF NATURAL COMPOUND FOR TREATING INFLAMMATION AND CANCER” (Hong Kong Baptist University, priority 2013, published 2014)",
  "assay_type_in_all_cases": "cell-based",
  "key": {"[1]": {"tested_on": "iNOS-induced NO generation in RAW 264.7 cells", "experiment": "NO accumulation in LPS/IFN-γ stimulated RAW 264.7 cells (Griess reaction)", "conditions": "24 hours", "description": "(§1) RAW264.7 were maintained in RPMI 1640 medium supplemented with 10% FBS at 37° C. in a humidified 5% CO2 atmosphere. Cells were plated in a 96-well plate (5×10^3 cells/well) and allowed to attach overnight. The cells were then stimulated with 10 U/ml of IFN-γ and 100 ng/ml of LPS for 24 hours in the presence or absence of GE with final concentration of 50, 25, 12.5, 6.25, 3.125 μg/mL, and Indometacin as positive drug.\nas §1, with “For stimulation, the medium was replaced with fresh FBS-free RPMI 1640 for 10 hours, and the” for “The”, “extractions or fractions.” for “GE with final concentration of 50, 25, 12.5, 6.25, 3.125 μg/mL, and Indometacin as positive drug.”\niNOS function was analyzed with Griess reaction by assay of nitrite concentration in the culture supernatant. Briefly, 100 μl/well of sample was incubated with equal volume of Griess solution (1% sulfanilamide in 5% phosphoric acid+1% α-naphthylamine in distilled water) at room temperature for 10 minutes. The absorbance was evaluated at 540 nm using a calibration curve with a sodium nitrite standard. Percent inhibition was expressed as [1−(NO level of sample/NO level of vehicle treated−control)]×100."}, "SMMC-7721": {"tested_on": "SMMC-7721", "experiment": "Cell cytotoxicity, MTT method", "conditions": "SMMC-7721, 72 hours, read-out: The cell cytotoxicity effect, IC50", "description": "(§2) RAW 264.7 cells were obtained from the American Tissue Culture Collection (ATCC). Liver cancer line SMMC-7721 and HepG2, breast cancer lines including MCF-7 and MDA-MB-231 were purchased from cell-bank of Chinese Academy of Sciences, China. These cells were maintained in complete RPMI 1640 medium supplemented with 10% FBS at 37° C. in a humidified 5% CO2 atmosphere.\n(§3) SMMC-7721 and HepG2, MCF-7 and MDA-MB-231 were seeded into 96-well plates (3×10^3 cells/well) and allowed to attach overnight. GE were added in final concentration of 50, 25, 12.5, 6.25, 3.125 μg/mL and continually cultured for 72 hours. Taxol as positive drug. Each well was incubated with 20 μl MTT (5 mg/ml in phosphate-buffered saline) for 4 hours at 37° C. Volume of 150 μl DMSO was added after the medium in well discarded and reacted for 10 minutes. Absorbance was measured at 490 nm. The optical density of formazan formed in control (untreated) cells was taken as 100% of viability. Mean value of each concentration (n=3 wells) was obtained."}, "MCF-7": {"tested_on": "MCF-7", "experiment": "Cell cytotoxicity, MTT method", "conditions": "read-out: The cell cytotoxicity effect, IC50", "description": "as §2, §3"}, "MDA-MB-231": {"tested_on": "MDA-MB-231", "experiment": "Cell cytotoxicity, MTT method", "conditions": "MDA-MB-231, 72 hours", "description": "as §2, §3"}, "HepG2": {"tested_on": "HepG2", "experiment": "Cell cytotoxicity, MTT method", "conditions": "HepG2, 72 hours, read-out: The cell cytotoxicity effect, IC50", "description": "as §2, §3"}, "[2]": {"tested_on": "breast cancer lines and liver cancer lines", "experiment": "Cell cytotoxicity, MTT method (summary in conclusion)", "description": "as §2, §3"}},
  "note": "Read-outs that look alike come from different tables or passages of the source.",
  "data": [
    {"compound": "COc1ccc2c(c1)c(CC(=O)O)c(C)n2C(=O)c1ccc(Cl)cc1", "note": "[Indometacin, reference compound]", "values": [
      {"measurement": "inhibition at 1 µg/mL", "setting": "[1]; Mus musculus, RAW264.7, 1 μg/mL, RAW 264.7, IFN-γ + LPS, read-out: The inhibitory effect on NO accumulation", "value": 46.5, "unit": "%"}
    ]},
    {"compound": "CC(=O)O[C@H]1C(=O)[C@@]2(C)[C@H]([C@H](OC(=O)c3ccccc3)[C@]3(O)C[C@H](OC(=O)[C@H](O)[C@@H](NC(=O)c4ccccc4)c4ccccc4)C(C)=C1C3(C)C)[C@]1(OC(C)=O)CO[C@@H]1C[C@@H]2O", "note": "[Taxol, reference compound]", "values": [
      {"measurement": "IC50", "setting": "SMMC-7721; Homo sapiens", "value": 0.15, "unit": "µM"},
      {"measurement": "IC50", "setting": "MCF-7; Homo sapiens, MCF7, MCF-7, 72 hours", "value": 0.003, "unit": "µM"},
      {"measurement": "IC50", "setting": "MDA-MB-231; Homo sapiens, read-out: The cell cytotoxicity effect, IC50", "value": 5, "unit": "µM"},
      {"measurement": "IC50", "setting": "HepG2; Homo sapiens", "value": 0.00044, "unit": "µM"}
    ]},
    {"compound": "Garcimultiflorone E [GE]", "values": [
      {"measurement": "The inhibitory effect on NO accumulation, IC50", "setting": "[1]; RAW 264.7, 10 U/ml IFN-γ + 100 ng/ml LPS", "value": 3.57, "unit": "µg/mL"},
      {"measurement": "IC50", "setting": "[1]; RAW 264.7, 10 U/ml IFN-γ + 100 ng/ml LPS, read-out: The inhibitory effect on NO accumulation, IC50", "value": 5.78, "unit": "µM"},
      {"measurement": "Concentration at which proliferation is inhibited", "setting": "[2]", "value": "about 10 μM"},
      {"measurement": "IC50", "setting": "SMMC-7721", "value": 11.9, "unit": "µM"},
      {"measurement": "IC50", "setting": "MCF-7; MCF-7, 72 hours", "value": 9.63, "unit": "µM"},
      {"measurement": "Effect on proliferation (in words)", "setting": "MDA-MB-231", "value": "no effect"},
      {"measurement": "IC50", "setting": "HepG2", "value": 13.2, "unit": "µM"}
    ]}
  ]
}
